Tests used:
[1] = Transmetallation assay with ZnCl2 in fetal bovine serum; type: physicochemical; conditions: 2.5 mM complex, 2.5 mM ZnCl2, fetal bovine serum, pH 7.4, 37° C., over 72 hours
Procedure: To directly compare the stability of Complex A to Gd-DTPA (Magnevist®) and Gd-DOTA (also known as gadoteric acid), a transmetallation assay using equimolar concentrations of ZnCl2 was performed in fetal bovine serum. Transmetallation was monitored as a function of time by calculating the relaxation ratio, R1(t)/R1(0), where R1(t) is the longitudinal Relaxivity at time t and R1(0) is the longitudinal Relaxivity in the absence of ZnCl2 (i.e. time 0).
Transmetallation of Gd^3+ ion by Zinc^2+ ion was performed in fetal bovine serum. The solution contained 4 mL of 2.5 mM Gd-complex and 2.5 mM ZnCl2 at pH 7.4. The mixture was stirred at 37° C. throughout the experiment while 300 μL aliquot was taken up at the appropriate time for measurement of the longitudinal relaxation time. The water proton relaxation times were measured using a Bruker mq60 tabletop MR relaxometer operating at 1.41T. Ratio of reverse relaxation time at each time point (R1(t)) and relaxation time at time zero (R1(0)) was plotted against time.

[2] = Demetallation assay in 1M HCl; type: physicochemical; conditions: 2.5 mM, 37° C.
Procedure: Since transmetallation was not observed in serum supplemented with ZnCl2, the stability of the various Gd complexes were further evaluated by monitoring demetallation in a highly acidic, non-physiologic solution (1M HCl). Even under these harsh conditions, Gd remained complexed with Compound 6 for at least 24 hours (FIG. 3B). […] Since a measurement of the T1 relaxation time could not be acquired at t=0 for this assay, the relaxation ratio could not be calculated. Instead, demetallation was monitored strictly by changes in the T1 relaxation time. In instances of demetallation, the T1 relaxation time moved towards that of free Gd.
Demetallation Assay A 300 μL solution of 2.5 mM Gd-compound was incubated at 37° C. in 1M HCl and the longitudinal relaxation times were acquired at appropriate time points. The relaxation time was then plotted against time.

[3] = system: GAG-rich cartilage (articular cartilage microparticles from juvenile bovine femurs); experiment: Electrostatic interaction with cartilage microparticles (T1 of supernatant); type: binding; conditions: normalized to average T1 of respective control
Procedure: To assess whether Gd-DOTA-Am4 interacts electrostatically with GAG-rich cartilage, articular cartilage from juvenile bovine femurs was ground into microparticles. These microparticles were then mixed and incubated with Gd-DOTA, Gd-DTPA, or Gd-DOTA-Am4. The microparticles were then pelleted and the T1 relaxation time of the supernatant was measured. Measurements were compared to analogous control Gd complexes that were not incubated with cartilage microparticles (FIG. 5). All samples were normalized to the average T1 relaxation time of their respective control.

[4] = Relaxivity measurements (longitudinal relaxivity r1); type: physicochemical; conditions: Bruker mq60 MR relaxometer, 1.41 T (60 MHz), saline pH 7.4
Procedure: Compound2 was prepared by bromination of methyl acrylate using bromine in chloroform at room temperature, while compound 3 was prepared by slow addition of diethylamine into compound 2 in ether at 0° C. The methyl and ethyl protecting groups were efficiently removed with a methanol:NaOH (0.5 M) solvent cocktail (40:60) for 48 h. The solution was neutralized with a 2 M HCl solution and dried. The residue was redissolved in pure methanol, and the precipitate that formed was filtered and the solvent dried in vacuuo to yield compound 6. […] In comparison, the longitudinal relaxivity of Magnevist® was measured to be 3.9 mM^−1s^−1 (FIG. 2B).
Longitudinal relaxation times (T1) were measured in saline at pH 7.4 using a Bruker mq60 tabletop MR relaxometer operating at 1.41 T. The longitudinal relaxivity (r1) of the complex was calculated by plotting the reciprocal of the T1 relaxation time versus the gadolinium concentration.

[5] = system: adult bovine menisci explants with defect; experiment: Contrast-enhanced T1-weighted MR imaging of meniscus explants with defect; conditions: 2 mM, pH 7.4, ~30 min bath; for qualitative contrast / signal intensity within soft tissue defect: T1-weighted images, 4.7 T
Procedure: To evaluate the efficacy of Complex A in highlighting soft tissue tears in comparison to Gd-DTPA, explants (8 mm in diameter) were obtained from adult bovine menisci. Well-defined defects were then introduced by using a punch to create a 4 mm internal core, which was left in place. Tissue explant blocks (n=9; 3 per group) were placed in a 48-well microplate and bathed in 2 mM Gd-DTPA, Complex A, or Saline (pH 7.4) for ˜30 min. The pH and concentration of Gd^+3 was kept constant throughout the experiment. T1-weighted images were then acquired in the axial plane (FIGS. 6A and 7). […] In the saline samples, the defects were extremely difficult to identify. To acquire a more quantitative comparison between the three groups, regions of interest (ROI) were drawn around the lateral defects and, following background subtraction (FIGS. 6B-D), the total signal intensity (area under curve) within the ROI was quantified and normalized to the length of the tear (FIG. 6E). The Wilcoxon signed-rank test was then used to compare contrast enhancement for the various contrast agents.
Adult bovine stifle joints were purchased from a commercial vendor (Animal Technologies, Tyler, Tex.), dissected in a sterile field, and the menisci removed. Biopsy punches (Miltex, York, Pa.) were used to produce 8 mm diameter full thickness samples in the axial plane. Well-defined defects were then introduced by using a 4 mm punch to create an internal core, which was left in place. […]
A region of interest (ROI) was determined for each MR image slice (n=6 per contrast agent, i.e. 2 slices per sample). […] The ROI height was determined for each slice individually, such that it could span the sample from top to bottom and exclude media and unrelated bright areas within the cartilage (e.g., cavities near the liquid-cartilage interface). […]
ROIs were partitioned into one-pixel tall lines spanning the entire width. […] All of the integrations in an ROI were then averaged to quantify that ROI's average signal intensity. […]

[6] = system: bovine meniscal fibrochondrocytes (MFCs); experiment: Cell-based safety assay on meniscal fibrochondrocyte monolayers; conditions: over 24 hours, basal media, compared with Saline
Procedure: (§1) The safety profile of Gd-DOTA-Am4 was assessed via both cell- and tissue-based assays. […] Similarly, after intra-articular injection of Saline, Gd-DTPA, or Gd-DOTA-Am4 into the joint space of an intact bovine femorotibial explant, the area fractions of live and dead cells in the cartilage and meniscus were equivalent after 3 hours (p>0.05) (FIG. 9).

[7] = system: cartilage and meniscus of an intact bovine femorotibial explant; experiment: Tissue-based safety assay, intra-articular injection into femorotibial explant; conditions: after 3 hours, compared with Saline, p>0.05
Procedure: as §1

time Gd remained complexed (demetallation) ([2]; monitored by T1 relaxation time)	Structure (SMILES)	transmetallation (relaxation ratio R1(t)/R1(0)) [1]	demetallation (T1 relaxation time) [2]	T1 relaxation time of supernatant after incubation with cartilage microparticles vs control without microparticles [3]	longitudinal relaxivity [4] [mM⁻¹ s⁻¹]	qualitative contrast / signal intensity within soft tissue defect [5]	qualitative contrast / signal intensity within soft tissue defect ([5]; listed as Magnevist®)	total signal intensity within ROI normalized to length of tear (contrast enhancement) ([5]; statistical comparison between groups)	cell morphology, viability, and proliferation [6]	area fractions of live and dead cells in the cartilage and meniscus [7]
	O=C([O-])CN1CCN(CC(=O)[O-])CCN(CC(=O)O)CCN(CC(=O)[O-])CC1.[Gd+3] [Gd-DOTA, 1,4,7,10-tetraazacyclododecane-1,4,7,10-tetraacetic acid (DOTA) gadolinium complex]	No transmetallation was detected	rapid demetallation	no change in the relaxation time						
at least 24 hours	NCC(C(=O)O)N1CCN(C(CN)C(=O)O)CCN(C(CN)C(=O)O)CCN(C(CN)C(=O)O)CC1 (stereo not drawn) [Compound 6, 1,4,7,10-tetraazacyclododecane-N,N′,N″,N′″-(α-(aminomethyl))-tetraacetic acid]									
	O=C([O-])CN(CCN(CC(=O)[O-])CC(=O)O)CCN(CC(=O)[O-])CC(=O)O.[Gd+3] [Gd-DTPA, Diethylenetriaminepentaacetic acid (DTPA) gadolinium complex]	rapidly increased	rapid demetallation	no change in the relaxation time	3.9	much less contrast was observed within the defect at greater depths	less contrast was observed within the defect at greater depths	statistically significant improvement in contrast compared to saline	qualitatively similar between groups	equivalent
